Laboratory results reported in US9115170B2, “Methods and compositions related to internalizing RGD peptides” (Sanford-Burnham Medical Research Institute, priority 2008, dated 2015).

Experiments:
[1] = test system: αv integrins; conditions: Koivunen et al. 1993, 1995; cited from earlier work
[2] = test system: PPC1 cells; test: In vitro phage binding assay; format: cell-based, human; conditions: for effect of trypsin treatment on binding to PPC1 cells: treatment with trypsin; for phage binding to cells: PPC1 cells, 1 hour at 4° C., phage-displayed peptide
Procedure: (§1) PPC1 cells were incubated with the phage for 1 hour at 4° C. (A) or 37° C. (B). Phage that bound to the cell surface (A) or those that had internalized into the cells (B) were rescued for titration.
(§2) FIGS. 8A and 8B show the binding (A) and internalization (B) of phage displaying CG7C (control phage), iRGD1, and iRGD1 mutants that carry an alanine substitution for each amino acid (underlined) (SEQ ID NOs:1 and 304-310). PPC1 cells were incubated with the phage for 1 hour at 4° C. (A) or 37° C. (B). Phage that bound to the cell surface (A) or those that internalized into the cells were rescued for titration.
(§3) PPC1 cells were incubated with the phage for 1 hour at 4° C. (A) or 37° C. (B). Phage that bound to the cell surface (A) or those that had internalized into the cells were rescued for titration.
(§4) Suspended cells (10^6 cells in DMEM containing 1% BSA) were incubated with 10^8 pfu/ml of T7 phage for 1 hr at 4° C. The cells were washed 4 times with the binding buffer, lysed with lysogeny broth containing 1% NP-40, and titrated. Phage internalization assays used the same procedure, except that the cells were incubated with phage at 37° C., and that an acidic buffer (500 mM sodium chloride, 0.1 M glycine, 1% BSA, pH 2.5) was substituted for the binding buffer in the second wash. Inhibitors of binding and internalization were added 20 min prior to incubation with phage. Non-infectious phage were prepared by treating phage with UV for 8 min in DMEM containing 1% BSA. The resulting UV-inactivated phage particles expressing about 200 peptides per particle were used as multivalent inhibitors. Free synthetic peptides, mouse antibodies against human α1, α2, αvβ3, αvβ5, α5β1, α4, or αv integrins and integrin subunits (Chemicon), goat anti-rat neuropilin-1 (R&D Systems, Minneapolis, Minn.), with mouse and a goat IgG isotype controls (Abcam) were also tested.

[3] = test system: orthotopic 22Rv-1 human prostate cancer xenografts; test: Confocal microscopy of tumors after injection of peptides, phage and micelles; format: in vivo, mice; conditions: free peptides 2 hrs, phage 15 min, micelles 3 hrs circulation
Procedure: (§5) Statistical analysis was performed with Student's t-test.

[4] = test system: PPC1 cells; test: In vitro phage internalization assay; format: cell-based, human; conditions: for phage internalization into cells: 1 hour at 37° C., acid wash, phage-displayed peptide
Procedure: as §1, §2, §3
To assess the internalization, the phage that bound to the cell surface were removed by washing the cells with acid buffer before phage titration. […] Statistical analysis was performed with Student's t-test. n=3, error bars represent s.d.
Mice were maintained in accordance with institutional guidelines and the animal experiments were approved by the Animal Research Committees at University of California, Santa Barbara and San Francisco. We used transgenic tumor mice (Bardeesy and DePinho, (2002); Arbeit et al., Progressive squamous epithelial neoplasia in K14-human papillomavirus type 16 transgenic mice. J. Virol. 68, 4358-4368 (1994); Hanahan, Heritable formation of pancreatic β-cell tumors in transgenic mice expressing recombinant insulin/simian virus 40 oncogenes. Nature 315, 115-122 (1985)) and xenograft tumors generated by injecting BALB/c nude mice (Harlan Sprague Dawley, Indianapolis, Ind.) with 10^6 human cancer cells orthotopically, intracardiacly or into the brain and tibia. […] Phage homing studies in vivo and cell binding studies in vitro (Zhang et al., (2006)), immunofluorescence (Karmali et al. (2008)) and flow cytometry (Sugahara et al., Hyaluronan oligosaccharides induce CD44 cleavage and promote cell migration in CD44-expressing tumor cells. J. Biol. Chem. 278, 32259-32265 (2003)) were done as described. Whole body imaging was performed 3 hrs after injecting the Cy7-labelled micelles with the Odyssey Infrared Imaging System (LI-COR Biosciences, Lincoln, Nebr.). In phage internalization assays, the cells were treated with 10^9 plaque forming units (pfu) of phage for 1 hr at 37° C., washed with an acidic buffer (glycine-HCl, pH 2.5) to remove and inactivate phage bound to the cell surface, and lysed for phage titration. Peptide internalization was studied by incubating cells with 20 μM of FAM-labelled peptide for 90 min at 37° C. […] To inhibit the binding and/or internalization of the phage, synthetic peptides or phage rendered non-infectious by UV-irradiation were added to the cells 20 min before incubation with the test phage. FAM-labelled peptides in tissues were quantified by measuring the fluorescence with Image J software. Student's t-test and one-way analysis of variance (ANOVA) followed by a suitable post hoc t-test were used for statistical analysis (Table 3).
as §4, with “Free synthetic peptides, mouse antibodies against human α1, α2, αvβ3, αvβ5, α5β1, α4, or αv integrins and integrin subunits (Chemicon), goat anti-rat neuropilin-1 (R&D Systems, Minneapolis, Minn.), with mouse and a goat IgG isotype controls (Abcam) were also tested.” left out

[5] = test system: PPC1 cells; test: Confocal microscopy of cells incubated with phage; format: cell-based, human
Source text: Phage bound to the cell surface were removed by washing the cells with a acidic buffer, and internalized phage were rescued and titrated.
The cells were stained for phage, neuropilin-1, and nuclei. The right panel is a high magnification view of the dotted area in the left panel. […] In almost all tumor ducts examined, αv integrins were positive. […] Scale bars=50 μm.
The cells were stained for phage (arrowed), neuropilin-1 (distal and flanking), and nuclei (central mass). The right panel of […] (SEQ ID NO:298) phage is a high magnification view of the dotted area in the left panel. […] Scale bars=10 μm.
Tissue sections were processed as described (Karmali et al. (2008)). Cells (2×10^5 cells) were grown on collagen I-coated coverslips (BD Biosciences, San Jose, Calif.) overnight, and incubated with 10^8 pfu/ml of T7 phage for 30 min. The cells were fixed in 4% paraformaldehyde, and stained with antibodies and DAPI (Molecular Probes, Eugene, Oreg.). The primary antibodies were rat anti-mouse CD31 monoclonal antibody (BD Biosciences), and rabbit anti-human αv integrin (Chemicon, Temecula, Calif.), rabbit anti-human neuropilin-1 (Chemicon), mouse anti-human neuropilin-1 (Miltenyi Biotec, Auburn, Calif.), and rabbit anti-T7 phage polyclonal antibodies. […]

[6] = test system: PPC1 cells; test: Inhibition of iRGE phage internalization within PPC1 cells; format: cell-based, human; conditions: non-infectious phage as inhibitor
Procedure: (§6) Statistical analyses were performed with ANOVA (a, b, d) or Student's t-test (c, e).
as §4

[7] = test system: M21 cells; test: CRGDK phage binding and internalization, M21 cells; format: cell-based, human
Procedure: as §6, §4

[8] = test system: PPC1 cells; test: Inhibition of iRGD phage internalization into PPC1 cells; format: cell-based, human; conditions: 37° C.; inhibitor added before test phage
Procedure: (§7) Phage that bound to the cell surface were titered. B, PPC1 cells were treated as described in A except that they were co-incubated with iRGD1 or CG7C phage at 37° C. The internalized phage were rescued for titering as described in the legend for FIG. 5A.
(§8) A, PPC1 cells were pre-treated with or without series of anti-integrin antibodies, or with normal mouse IgG as a control, for 30 min at 4° C., followed by incubation with iRGD1 phage or CG7C control phage for 1 hour at 4° C. (A) or 37° C. (B). Phage that bound to the cell surface (A) or those that internalized into the cells (B) were rescued and titrated.
as §6
(§9) Suspended cells (10^6 cells in DMEM containing 1% BSA) were incubated with 10^8 pfu/ml of T7 phage for 1 hr at 4° C. The cells were washed 4 times with the binding buffer, lysed with lysogeny broth containing 1% NP-40, and titrated. Phage internalization assays used the same procedure, except that the cells were incubated with phage at 37° C., and that an acidic buffer (500 mM sodium chloride, 0.1 M glycine, 1% BSA, pH 2.5) was substituted for the binding buffer in the second wash. Inhibitors of binding and internalization were added 20 min prior to incubation with phage. Non-infectious phage were prepared by treating phage with UV for 8 min in DMEM containing 1% BSA. […]

[9] = test system: PPC1 cells; test: Inhibition of iRGD phage binding to PPC1 cells; format: cell-based, human; conditions: 4° C.; inhibitor added before test phage
Procedure: as §7, §8, §9

[10] = test system: M21 human melanoma cells; test: iRGD phage binding to M21 cells; format: cell-based
Procedure: as §4

[11] = test system: pancreatic ductal adenocarcinoma (PDAC) tumors; test: In vivo homing of FAM-labelled peptide to PDAC tumors; set-up: species or system mice; conditions: for effect of excess unlabelled peptide on accumulation of FAM-iRGD in tumors: 10-fold excess injected 30 min before FAM-iRGD
Procedure: FIGS. 3A and 3B show tumor homing of iRGD1 peptide into murine pancreatic carcinoma. A, 200 μg of […] iRGD1 peptide was injected through the tail vein into transgenic mice with pancreatic ductal adenocarcinoma (PDAC) and the peptide was allowed to circulate for 4.5 hrs. B, An excess of non-labeled iRGD1 (2 mg/mouse) was injected into the PDAC mice 30 min prior to the injection of the […] iRGD1 peptide as described in A. Shown are harvested organs observed under UV light (left) and white light (right).
Approximately 200 μg of FAM-iRGD1 was injected into mice bearing PDACs and allowed to circulate for 15 min (A), 30 min (B), 2 hrs (C) and 4.5 hrs (D). The nuclear staining with DAPI and vascular endothelial cell staining with an anti-CD31 antibody, respectively are shown. Note that at 15 (A) to 30 min (B) post-injection of FAM-iRGD1, the dye stays in the vessels (arrows) or in the cells surrounding the vessels (A, arrowheads in window at the right upper corner), but no vascular staining with the peptides is observed after 2 hrs (C, arrow) or 4.5 hrs (D, arrow). At 30 min post peptide injection, the peptide fluorescence appears in tumor glands (B, main panel and upper right corner inset); some individual cells within the tumor are strongly positive after 2 hrs (C, asterisks) and 4.5 hrs (D, asterisk).
as §5
Approximately 200 μg of […] iRGD1 peptide (FAM-iRGD1) was injected through the tail vein into immuno-deficient mice bearing xenograft of PPC1 human prostate carcinoma, MIA PaCa-2 human pancreatic carcinoma, or MDA-MB-435 human breast carcinoma and was allowed to circulate for 4.5 hrs (FIG. 2). […] Confocal microscopy of PDAC tumor sections from animals injected with FAM-iRGD1 indicated time-dependent in vivo homing dynamics for this peptide. […] The peptide fluorescence associated with the tumors cells was condensed into the perinuclear area of the tumor cells (FIGS. 4C and 4D, asterisks).

[12] = test system: PPC1 cells; test: Inhibition of trypsin-treated iRGD phage binding to PPC1 cells; format: cell-based, human; conditions: 4° C.; non-infectious phage as inhibitor
Procedure: as §6, §4

[13] = test system: PPC1 cells; test: Inhibition of CRGDK phage binding to PPC1 cells; format: cell-based, human
Procedure: as §6, §4

CDCRGDCFC [RGD-4C]
affinity for αv integrins [1]: strong affinity | effect of trypsin treatment on binding to PPC1 cells [2]: no effect | distribution within tumor (confocal microscopy) [3]: accumulated only in and around tumor blood vessels

CRG [CRG phage]
phage binding to cells [2]: did not | phage internalization into cells [4]: did not

CRGD [CRGD phage]
phage binding to cells [2]: did not | phage internalization into cells [4]: did not

CRGDC
affinity for αv integrins [1]: strong affinity | effect of trypsin treatment on binding to PPC1 cells [2]: no effect | distribution within tumor (confocal microscopy) [3]: accumulated only in and around tumor blood vessels

CRGDGGPDC
co-localization with neuropilin-1 (confocal microscopy) [5]: did not co-localize | internalization into cells (confocal microscopy) [5]: nor did they internalize

CRGDK [CRGDK phage]
inhibition of iRGE phage internalization within PPC1 cells [6]: inhibited the internalization | binding to M21 cells with different αv integrin expression levels [7]: binds similarly | phage binding to M21 cells with minimal expression of neuropilin-1 [7]: did not substantially bind | phage internalization into M21 cells with minimal expression of neuropilin-1 ([7]; 1 hour at 37° C.): did not substantially bind to or internalize | increase of binding by forced expression of neuropilin-1 ([7]; M21 cells transfected with neuropilin-1 cDNA): 3.5 fold | increase of internalization by forced expression of neuropilin-1 ([7]; M21 cells transfected with neuropilin-1 cDNA, not shown): 3.5 fold | internalization relative to iRGD phage ([7]; M21 cells, 1 hour at 37° C.): reversed | inhibition of iRGD phage internalization into PPC1 cells [8]: blocked | phage binding to cells [2]: bound to | internalization relative to iRGD phage ([4]; 37° C.): more efficiently than iRGD phage | phage internalization into cells [4]: internalized

CRGDKG [CRGDKG phage]
phage binding to cells [2]: bound | phage internalization into cells [4]: internalized

CRGDKGPDC [iRGD1]
inhibition of iRGD phage binding to PPC1 cells [9]: inhibited in a dose-dependent manner | binding to M21 cells that express both αvβ3 and αvβ5 [10]: bound | binding to M21 variants lacking expression of αvβ3 and αvβ5 [10]: did not | effect of excess unlabeled peptide on accumulation of FAM-iRGD1 in PDAC tumors ([11]; 2 mg/mouse 30 min prior to FAM-iRGD1): inhibited the accumulation | effect of excess unlabelled peptide on accumulation of FAM-iRGD in tumors [11]: greatly reduced

CRGDKGPEC [iRGD3]
phage binding to cells [2]: similar | phage internalization into cells [4]: similar

CRGDRGPDC [iRGD2]
phage binding to cells [2]: similar | phage internalization into cells [4]: similar

CRGEKGPDC [iRGE, reference compound]
effect of excess unlabelled peptide on accumulation of FAM-iRGD in tumors [11]: did not have the same effect

RPARPAR [RPARPAR phage]
inhibition of iRGE phage internalization within PPC1 cells [6]: inhibited the internalization | inhibition of binding of trypsin-treated iRGD phage [12]: blocked | inhibition of iRGD phage internalization into PPC1 cells [8]: blocked | inhibition of CRGDK phage binding to PPC1 cells [13]: dose-dependently inhibited
